Test system: male rats (Sprague-Dawley from Tuck's)
Assay: hypocholesterolaemic and hypotriglyceridaemic effects in rats fed a sucrose-rich semisynthetic diet containing 0.25% cholesterol
Assay type: in vivo
Conditions: percentage change from control values, compound at 0.1% in diet for 7 days
Experimental: The hypocholesterolaemic and hypotriglyceridaemic effects of 6-amino-9-[(2-hydroxy-3-thiomorpholino)propyl]purine (Compound 1) and 6-amino-9-([2-hydroxy-3-(2,6-cis-dimethylmorpholino)]propyl)-purine (Compound 2) were assessed as follows.
Groups of 8 male rats (Sprague-Dawley from Tuck's) weighing 80-100g were adapted to a sucrose-rich semisynthetic diet containing 0.25% cholesterol by progressive dilution over 7 days of a powdered commercially available diet (Oxoid). Compounds were then added to the semisynthetic diet at the level of 0.1% and these diets were fed for 7 days. The rats were then killed and the serum total cholesterol and triglyceride were measured by a Technicon Auto-Analyser. The results are expressed as percentage change from control values.

Liver wt. as % body wt.: +1%
Structure (SMILES): Nc1ncnc2c1ncn2CC(O)CN1CCSCC1 (stereo not drawn) [Compound 1, 6-amino-9-[(2-hydroxy-3-thiomorpholino)propyl]-purine]
Serum Triglyceride (* = statistically significant): -8 percentage
Serum Cholesterol (serum total cholesterol, * = statistically significant): -57* percentage
